Consider two compounds from US10227358B2, “Hydroxyester derivatives, a process for their preparation and pharmaceutical compositions containing them” (LES LABORATOIRES SERVIER, priority 2015, dated 2019).

For one assay, the target named is Mcl-1 protein (UniProtKB Q07820) (Homo sapiens, UniProt Q07820). The experiment in a line: Inhibition of Mcl-1 by the fluorescence polarisation technique. The class given is binding. The conditions noted are these: fluorescein labelled ligand 1 nM, Mcl-1 protein 5 nM, ~2 hours at room temperature; read-out: IC50 (μM) Mcl-1 FP. Here is the method:
The relative binding potency of each compound was determined via Fluorescence Polarisation (FP). The method utilised a Fluorescein labelled ligand (Fluorescein-βAla-Ahx-A-REIGAQLRRMADDLNAQY-OH; mw 2,765) which binds to the Mcl-1 protein (such that Mcl-1 corresponds to the UniProtKB® primary accession number: Q07820) leading to an increased anisotropy measured in milli-polarisation (mP) units using a reader. The addition of a compound which binds competitively to the same site as the ligand will result in a greater proportion of unbound ligand in the system indicated by a decrease in mP units.
An 11 point serial dilution of each compound was prepared in DMSO and 2 μl transferred into flat bottomed, low binding, 384-well plate (final DMSO concentration 5%). 38 μl of buffer (10 mM 4-(2-hydroxyethyl)-1-piperazineethanesulfonic acid [HEPES], 150 mM NaCl, 0.05% Tween 20, pH 7.4), containing the Fluorescein labelled ligand (final concentration 1 nM) and Mcl-1 protein (final concentration 5 nM) was then added.
Assay plates were incubated ˜2 hours at room temperature before FP was measured on a […] Synergy2 reader (Ex. 528 nm, Em. 640 nm, Cut off 510 nm) and mP units calculated. The binding of increasing doses of test compound was expressed as a percentage reduction in mP compared to a window established between ‘5% DMSO only’ and ‘100% inhibition’ controls. 11-point dose response curves were plotted with XL-Fit software using a 4-Parameter Logistic Model (Sigmoidal Dose-Response Model) and the inhibitory concentrations that gave a 50% reduction in mP (IC50) were determined.
(In fluorescence polarisation assays a small probe gives low polarisation when free and higher when bound to something large.)

For assay [1], the system named is H929 multiple myeloma tumour line. In words: In vitro cytotoxicity (MTT, Microculture Tetrazolium Assay). The class given is cell-based. The conditions noted are these: Homo sapiens, NCI-H929; H929 cells, 48 hours exposure, cell viability. Here is the method:
The cytotoxicity studies were carried out on the H929 multiple myeloma tumour line.
The cells are distributed onto microplates and exposed to the test compounds for 48 hours.
The cell viability is then quantified by a colorimetric assay, the Microculture Tetrazolium Assay (Cancer Res., 1987, 47, 939-942).

Chain of Mcl-1 protein (Q07820 whole entry): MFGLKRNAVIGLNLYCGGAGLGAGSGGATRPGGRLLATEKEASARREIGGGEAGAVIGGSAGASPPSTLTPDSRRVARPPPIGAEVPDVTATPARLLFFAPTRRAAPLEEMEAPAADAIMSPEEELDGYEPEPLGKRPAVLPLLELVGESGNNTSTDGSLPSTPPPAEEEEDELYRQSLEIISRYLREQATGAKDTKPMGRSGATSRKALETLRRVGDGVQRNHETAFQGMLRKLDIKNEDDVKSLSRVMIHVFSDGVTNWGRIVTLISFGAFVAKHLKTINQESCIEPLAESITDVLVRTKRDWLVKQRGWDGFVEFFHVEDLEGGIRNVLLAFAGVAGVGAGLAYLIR

One may read the IC50 as the concentration needed to halve the response being measured. Take `COc1ccccc1-c1nccc(COc2ccccc2C[C@@H](Oc2ncnc3sc(-c4ccc(F)cc4)c(-c4c(C)c(Cl)c(OCCN5CCN(C)CC5)c(Cl)c4C)c23)C(=O)OC(C)OC(=O)N(C)C)n1` (stereo partly drawn) [Example 17, 1-[(dimethylcarbamoyl)oxy]ethyl (2R)-2-{[5-{3,5-dichloro-2,6-dimethyl-4-[2-(4-methylpiperazin-1-yl)ethoxy]phenyl}-6-(4-fluorophenyl)thieno[2,3-d]pyrimidin-4-yl]oxy}-3-(2-{[2-(2-methoxyphenyl)pyrimidin-4-yl]methoxy}phenyl)propanoate]: the IC50 at Mcl-1 protein amounted to 1.54 µM; in assay [1], 0.702 µM.

For `COc1ccccc1-c1nccc(COc2ccccc2C[C@@H](Oc2ncnc3sc(-c4ccc(F)cc4)c(-c4c(C)c(Cl)c(OCCN5CCN(C)CC5)c(Cl)c4C)c23)C(=O)O)n1` [Preparation 13, (2R)-2-{[5-{3,5-dichloro-2,6-dimethyl-4-[2-(4-methylpiperazin-1-yl)ethoxy]phenyl}-6-(4-fluorophenyl)thieno[2,3-d]pyrimidin-4-yl]oxy}-3-(2-{[2-(2-methoxyphenyl)pyrimidin-4-yl]methoxy}phenyl)propanoic Acid], the IC50 at Mcl-1 protein turned out to be 0.00181 µM; in assay [1], 0.025 µM.
